Measured values from US12173018B2, “Penicillin-binding protein inhibitors” (priority 2018, dated 2024).
In brackets after ≈: the same amount, converted by molar mass. Like-named read-outs stand apart in the source and are kept apart here.

Tests used:
Type in all cases: cell-based
E. coli ATCC 25922 = experiment: Broth microdilution MIC, E. coli ATCC 25922; settings: Escherichia coli
How it was run: (§1)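 MIC = lowest concentration showing no visible growth after 16-20 h at 37° C. Cation-adjusted MH broth, 2-fold serial dilutions, starting inoculum 5×10^5 CFU/mL, per CLSI methods.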

N. gonorrhoeae FA1090 = experiment: Liquid broth MIC, N. gonorrhoeae FA1090; settings: Neisseria gonorrhoeae
How it was run: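 Visual MIC: lowest concentration well showing no bacterial growth after 40-42 h at 36° C in 5% CO2. Inoculum 5×10^5 CFU/mL from colonies swabbed into GC broth, set by OD600; compounds in 2-fold serial dilution.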

P. aeruginosa ATCC 35151 = experiment: microbe, parasite or virus in culture; settings: Pseudomonas aeruginosa
How it was run: as §1

E. coli D22 = experiment: microbe, parasite or virus in culture; settings: Escherichia coli
How it was run: as §1

[1] = test system: P. aeruginosa (ΔmexAB-oprM); experiment: microbe, parasite or virus in culture; settings: Pseudomonas aeruginosa, read-out: MIC P. aeruginosa ΔmexAB-OprM
How it was run: as §1

E. coli AG100A = experiment: microbe, parasite or virus in culture; settings: Escherichia coli, read-out: MIC E. coli AG100A
How it was run: as §1

K. pneumoniae UMM = experiment: microbe, parasite or virus in culture; settings: Klebsiella pneumoniae, read-out: MIC K. pneumoniae UMM
How it was run: as §1

E. coli 901C = experiment: microbe, parasite or virus in culture; settings: Escherichia coli, read-out: MIC E. coli 901C
How it was run: as §1

K. pneumoniae SI-117 = experiment: microbe, parasite or virus in culture; settings: Klebsiella pneumoniae, SI117, read-out: MIC K. pneumoniae SI-117
How it was run: as §1

A. baumannii ATCC 19606 = experiment: Broth microdilution MIC, A. baumannii ATCC 19606; settings: Acinetobacter baumannii
How it was run: as §1

P. aeruginosa PAO1 = experiment: Broth microdilution MIC, P. aeruginosa PAO1; settings: Pseudomonas aeruginosa; P. aeruginosa PAO1, broth microdilution; read-out: MIC P. aeruginosa PAO1
How it was run: as §1

[2] = ATCC25922, E. coli ATCC 25922, broth microdilution, read-out: MIC E. coli 25922
[3] = N. gonorrhoeae FA1090, liquid broth, read-out: Minimum Inhibitory Concentration, N. gonorrhoeae FA1090
[4] = ATCC35151, hyper-permeable P. aeruginosa ATCC 35151, read-out: MIC P. aeruginosa ATCC 35151
[5] = hyper-permeable E. coli D22, broth microdilution, read-out: MIC E. coli D22
[6] = K. pneumoniae UMM producing SHV-5 and KPC-2
[7] = hyper-permeable E. coli 901C, broth microdilution
[8] = ATCC19606, A. baumannii ATCC 19606, broth microdilution, read-out: MIC A. baumannii ATCC 19606

SMILES	MIC (E. coli ATCC 25922; [2])	MIC (N. gonorrhoeae FA1090; [3])	MIC (P. aeruginosa ATCC 35151; [4])	MIC (E. coli D22; [5])	MIC [1]	MIC (E. coli AG100A)	MIC (K. pneumoniae UMM; [6])	MIC (E. coli 901C; [7])	MIC (K. pneumoniae SI-117)	MIC (A. baumannii ATCC 19606; [8])	MIC (P. aeruginosa PAO1)	MIC (E. coli D22; D22, read-out: MIC E. coli D22)	MIC (K. pneumoniae UMM)	MIC (E. coli 901C; 901C)	MIC (E. coli ATCC 25922; ATCC25922, read-out: MIC E. coli 25922)	MIC (N. gonorrhoeae FA1090; FA1090, read-out: Minimum Inhibitory Concentration, N. gonorrhoeae FA1090)	MIC (A. baumannii ATCC 19606; ATCC19606, read-out: MIC A. baumannii ATCC 19606)	MIC (P. aeruginosa ATCC 35151; ATCC35151, read-out: MIC P. aeruginosa ATCC 35151)
CCN1CCN(C(=O)NC(C(=O)N[C@H]2Cc3cccc(C(=O)O)c3OB2O)c2ccc(O)c(O)c2F)C(=O)C1=O (stereo partly shown) [Example 70]	2 to 4 µg/mL	< 0.125 µg/mL	< 0.25 µg/mL	2 to 4 µg/mL	0.5 to 1 µg/mL	0.5 to 1 µg/mL	0.5 to 1 µg/mL	0.5 to 1 µg/mL	8 to 16 µg/mL	0.5 to 1 µg/mL	8 to 16 µg/mL	–	–	–	–	–	–	–
O=C(O)c1cccc2c1OB(O)[C@@H](NC(=O)C(NC(=O)N1CCN(CCF)C(=O)C1=O)c1ccc(O)c(O)c1Cl)C2 (stereo partly drawn) [Example 71, (3R)-3-(2-(2-chloro-3,4-dihydroxyphenyl)-2-(4-(2-fluoroethyl)-2,3-dioxopiperazine-1-carboxamido)acetamido)-2-hydroxy-3,4-dihydro-2H-benzo[e][1,2]oxaborinine-8-carboxylic acid]	8 to 16 µg/mL	–	0.5 to 1 µg/mL	–	2 to 4 µg/mL	2 to 4 µg/mL	32 to 64 µg/mL	0.5 to 1 µg/mL	–	0.5 to 1 µg/mL	32 to 64 µg/mL	–	–	–	–	–	–	–
CCN1CCN(C(=O)NC(C(=O)N[C@H]2Cc3cccc(C(=O)O)c3OB2O)c2ccc(B(O)O)cc2)C(=O)C1=O (stereo partly shown) [Example 112]	32 to 64 µg/mL	< 0.125 µg/mL	–	–	–	2 to 4 µg/mL	–	–	> 128 µg/mL	–	–	2 to 4 µg/mL	32 to 64 µg/mL	< 0.25 µg/mL	–	–	–	–
O=C(O)c1cccc2c1OB(O)[C@@H](NC(=O)C(NC(=O)N1CCN(CCF)C(=O)C1=O)c1ccc(B(O)O)cc1)C2 (stereo partly drawn) [Example 113, (3R)-3-(2-(4-boronophenyl)-2-(4-(2-fluoroethyl)-2,3-dioxopiperazine-1-carboxamido)acetamido)-2-hydroxy-3,4-dihydro-2H-benzo[e][1,2]oxaborinine-8-carboxylic acid]	32 to 64 µg/mL	< 0.125 µg/mL	–	8 to 16 µg/mL	–	2 to 4 µg/mL	32 to 64 µg/mL	< 0.25 µg/mL	> 128 µg/mL	–	–	–	–	–	–	–	–	–
CCN1CCN(C(=O)NC(C(=O)N[C@H]2Cc3ccc(F)c(C(=O)O)c3OB2O)c2ccc(O)c(O)c2Cl)C(=O)C1=O (stereo partly drawn) [Example 124, (3R)-3-(2-(2-chloro-3,4-dihydroxyphenyl)-2-(4-ethyl-2,3-dioxopiperazine-1-carboxamido)acetamido)-7-fluoro-2-hydroxy-3,4-dihydro-2H-benzo[e][1,2]oxaborinine-8-carboxylic acid]	8 to 16 µg/mL	1 to 2 µg/mL (≈ 1.69 to 3.37 µM)	< 0.25 µg/mL	0.5 to 1 µg/mL	< 0.25 µg/mL	0.5 to 1 µg/mL	8 to 16 µg/mL	< 0.25 µg/mL	8 to 16 µg/mL	0.5 to 1 µg/mL	0.5 to 1 µg/mL	–	–	–	–	–	–	–
CCN1CCN(C(=O)NC(C(=O)N[C@H]2Cc3cccc(C(=O)O)c3OB2O)c2ncc(O)cc2F)C(=O)C1=O (stereo partly drawn) [Example 135, (3R)-3-(2-(4-ethyl-2,3-dioxopiperazine-1-carboxamido)-2-(3-fluoro-5-hydroxypyridin-2-yl)acetamido)-2-hydroxy-3,4-dihydro-2H-benzo[e][1,2]oxaborinine-8-carboxylic acid]	2 to 4 µg/mL	< 0.125 µg/mL	–	0.5 to 1 µg/mL	–	2 to 4 µg/mL	8 to 16 µg/mL	< 0.25 µg/mL	32 to 64 µg/mL	–	–	–	–	–	–	–	–	–
NCCCN1CCN(C(=O)NC(C(=O)N[C@H]2Cc3cccc(C(=O)O)c3OB2O)c2ccc(O)c(O)c2Cl)C(=O)C1=O (stereo partly drawn) [Example 233, (3R)-3-(2-(4-(3-aminopropyl)-2,3-dioxopiperazine-1-carboxamido)-2-(2-chloro-3,4-dihydroxyphenyl)acetamido)-2-hydroxy-3,4-dihydro-2H-benzo[e][1,2]oxaborinine-8-carboxylic acid]	8 to 16 µg/mL	1 to 2 µg/mL (≈ 1.66 to 3.31 µM)	< 0.25 µg/mL	0.5 to 1 µg/mL	< 0.25 µg/mL	0.5 to 1 µg/mL	2 to 4 µg/mL	0.5 to 1 µg/mL	2 to 4 µg/mL	2 to 4 µg/mL	–	–	–	–	–	–	–	–
CCN1C[C@H](CO)N(C(=O)NC(C(=O)N[C@H]2Cc3cccc(C(=O)O)c3OB2O)c2ncc(O)cc2F)C(=O)C1=O (stereo partly drawn) [Example 234, (3R)-3-(2-((R)-4-ethyl-6-(hydroxymethyl)-2,3-dioxopiperazine-1-carboxamido)-2-(3-fluoro-5-hydroxypyridin-2-yl)acetamido)-2-hydroxy-3,4-dihydro-2H-benzo[e][1,2]oxaborinine-8-carboxylic acid]	–	–	8 to 16 µg/mL	8 to 16 µg/mL	32 to 64 µg/mL	8 to 16 µg/mL	32 to 64 µg/mL	2 to 4 µg/mL	> 128 µg/mL	–	–	–	–	–	> 128 µg/mL	0.25 to 0.5 µg/mL (≈ 0.436 to 0.872 µM)	> 128 µg/mL	–
CCNC(=O)NCCN1CCN(C(=O)NC(C(=O)N[C@H]2Cc3cccc(C(=O)O)c3OB2O)c2ccc(O)c(O)c2Cl)C(=O)C1=O (stereo partly drawn) [Example 235, (3R)-3-(2-(2-chloro-3,4-dihydroxyphenyl)-2-(4-(2-(3-ethylureido)ethyl)-2,3-dioxopiperazine-1-carboxamido)acetamido)-2-hydroxy-3,4-dihydro-2H-benzo[e][1,2]oxaborinine-8-carboxylic acid]	32 to 64 µg/mL	1 to 2 µg/mL (≈ 1.51 to 3.03 µM)	< 0.25 µg/mL	2 to 4 µg/mL	< 0.25 µg/mL	2 to 4 µg/mL	2 to 4 µg/mL	2 to 4 µg/mL	8 to 16 µg/mL	0.5 to 1 µg/mL	–	–	–	–	–	–	–	–
NCCCN1CCN(C(=O)N[C@@H](C(=O)N[C@H]2Cc3ccc(F)c(C(=O)O)c3OB2O)c2ccc(O)c(O)c2Cl)C(=O)C1=O [Example 236, (R)-3-((R)-2-(4-(3-aminopropyl)-2,3-dioxopiperazine-1-carboxamido)-2-(2-chloro-3,4-dihydroxyphenyl)acetamido)-7-fluoro-2-hydroxy-3,4-dihydro-2H-benzo[e][1,2]oxaborinine-8-carboxylic acid]	0.5 to 1 µg/mL	1 to 2 µg/mL (≈ 1.61 to 3.22 µM)	< 0.25 µg/mL	0.5 to 1 µg/mL	< 0.25 µg/mL	0.5 to 1 µg/mL	0.5 to 1 µg/mL	0.5 to 1 µg/mL	0.5 to 1 µg/mL	< 0.25 µg/mL	–	–	–	–	–	–	–	–
CCN1C[C@H](CO)N(C(=O)NC(C(=O)N[C@H]2Cc3ccc(F)c(C(=O)O)c3OB2O)c2ccc(O)c(O)c2Cl)C(=O)C1=O (stereo partly drawn) [Example 237, (3R)-3-(2-(2-chloro-3,4-dihydroxyphenyl)-2-((R)-4-ethyl-6-(hydroxymethyl)-2,3-dioxopiperazine-1-carboxamido)acetamido)-7-fluoro-2-hydroxy-3,4-dihydro-2H-benzo[e][1,2]oxaborinine-8-carboxylic acid]	2 to 4 µg/mL	1 to 2 µg/mL (≈ 1.61 to 3.21 µM)	< 0.25 µg/mL	< 0.25 µg/mL	< 0.25 µg/mL	< 0.25 µg/mL	2 to 4 µg/mL	< 0.25 µg/mL	2 to 4 µg/mL	< 0.25 µg/mL	–	–	–	–	–	–	–	–
CCN1C[C@H](CCN)N(C(=O)NC(C(=O)N[C@H]2Cc3ccc(F)c(C(=O)O)c3OB2O)c2ccc(O)c(O)c2Cl)C(=O)C1=O (stereo partly drawn) [Example 238, (3R)-3-(2-((S)-6-(2-aminoethyl)-4-ethyl-2,3-dioxopiperazine-1-carboxamido)-2-(2-chloro-3,4-dihydroxyphenyl)acetamido)-7-fluoro-2-hydroxy-3,4-dihydro-2H-benzo[e][1,2]oxaborinine-8-carboxylic acid]	32 to 64 µg/mL	4 to 8 µg/mL (≈ 6.29 to 12.6 µM)	–	–	< 0.25 µg/mL	2 to 4 µg/mL	–	–	8 to 16 µg/mL	0.5 to 1 µg/mL	–	8 to 16 µg/mL	8 to 16 µg/mL	2 to 4 µg/mL	–	–	–	< 0.25 µg/mL
CNCCN1CCN(C(=O)NC(C(=O)N[C@H]2Cc3cccc(C(=O)O)c3OB2O)c2ccc(O)c(O)c2Cl)C(=O)C1=O (stereo partly drawn) [Example 239, (3R)-3-(2-(2-chloro-3,4-dihydroxyphenyl)-2-(4-(2-(methylamino)ethyl)-2,3-dioxopiperazine-1-carboxamido)acetamido)-2-hydroxy-3,4-dihydro-2H-benzo[e][1,2]oxaborinine-8-carboxylic acid]	32 to 64 µg/mL	4 to 8 µg/mL (≈ 6.62 to 13.2 µM)	< 0.25 µg/mL	2 to 4 µg/mL	< 0.25 µg/mL	2 to 4 µg/mL	2 to 4 µg/mL	2 to 4 µg/mL	> 128 µg/mL	0.5 to 1 µg/mL	–	–	–	–	–	–	–	–
